Experimental data: US20260297129A1, “PEPTIDES AS SELECTIVE IL-23 RECEPTOR INHIBITORS” (SANOFI, priority 2023, published 2026)
≈ marks a conversion by molar mass, not a printed value. Where two headings read alike, the source gives them in different places. Numbered stars: 1 amine (or outer) side, 2 acyl side, 3 side chain; on linkers, the order of the positions; unused ones are H or OH. Bridge positions count the residues as written; N and C are the ends. Square brackets hold non-standard residues; d marks the D form. Peptide text beside a SMILES is read from it. * marks the point of attachment. Lys(Me,(CH2)4NMe(CH2)4CO) = CN(CCCCC(=O)[*:3])CCCCN(C)CCCC[C@H](N[*:1])C(=O)[*:2]; Trp(7-Me) = Cc1cccc2c(C[C@H](N)C(=O)O)c[nH]c12; NH(2-(3-pyridyl)ethyl) = c1cncc(CCN*)c1; Sebacoyl = O=C(CCCCCCCCC(=O)[*:2])[*:1]; αMeLys(Me2) = CN(C)CCCC[C@](C)(N)C(=O)O; 2Nal = N[C@@H](Cc1ccc2ccccc2c1)C(=O)O; 3Pal = N[C@@H](Cc1cccnc1)C(=O)O; Lys(Me) = CNCCCC[C@H](N)C(=O)O; Aun = NCCCCCCCCCCC(=O)O; Thp = NC1(C(=O)O)CCOCC1; Me2NCH2CH2 = CN(C)CC*; Aib = CC(C)(N)C(=O)O; Sar = CNCC(=O)O

Assays:
[1] = Protease stability in simulated intestinal fluids (FaSSIF) (Table 7); type: in vitro ADME; conditions: fassif with pancreatin, 37° C.; for remaining at 1 h, 1 µM: 60 min, read-out: Remaining percentage of peptide compound, FaSSIF 60 (min); for remaining at 2 h, 1 µM: 120 min, read-out: Remaining percentage of peptide compound, FaSSIF 120 (min); for remaining at 4 h, 1 µM: 240 min, read-out: Remaining percentage of peptide compound, FaSSIF 240 (min)
Outline: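 Percent parent remaining was derived from LC-MS/MS peak areas normalised to time 0, set at 100%. Sampling at 0, 60, 120 and 240 min, quenched in ethanol with 0.1% HCOOH. Final peptide 1 μM, 37° C, SIF containing pancreatin.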

[2] = system: IL-23 induced STAT3 signaling (IL-23 receptor) in HEK-Blue IL-23 cells; assay: Inhibition of IL-23 induced STAT3 signaling in HEK-Blue IL-23 cells, SEAP reporter (Table 9); type: cell-based; conditions: human IL23 0.25 ng/ml, overnight, read-out: Inhibition of IL-23 induced pSTAT3 (IC50 nM)
Outline: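 STAT3-driven SEAP output measured at OD 620–655 nm after 45 min QUANTI-Blue development of supernatant, with dose-response fits. Peptides were given 60 min ahead of 0.25 ng/ml (final) human IL-23, followed by overnight culture at 37 °C; 10,000 HEK-Blue IL-23 cells per well.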

[3] = Solubility of peptide compounds in buffer formulations (Table 5); type: physicochemical; conditions: target 1 mg/ml
Outline: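 Solubility was quantified by UHPLC-UV, comparing 1:10-diluted filtrate peak areas with a DMSO reference standard and correcting for extinction coefficients. Samples were prepared from dried DMSO stock at 1 mg/mL nominal in pH 1.2 HCl, pH 6.5 or pH 7.4 phosphate (50 mM), and agitated 2 h.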

[4] = Protease stability in simulated gastric fluids (FaSSGF) (Table 7); type: in vitro ADME; conditions: fassgf with pepsin, 60 min, 37° C., read-out: Remaining percentage of peptide compound, FaSSGF 60 (min)
Outline: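 Peptides at 1 μM final were incubated at 37 °C in simulated gastric fluid with pepsin (320 mg per 100 mL SGF concentrate). Samples were quenched with ethanol (0.1% HCOOH) at 0, 60, 120 and 240 min and analysed by LC-MS/MS. Percent remaining is the peak area relative to T0 (100%).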

[5] = Chemical stability (relative purity loss) of peptide compounds in buffer formulations (Table 6); type: physicochemical; conditions: 2° C. and 37° C.
Description: Purity of a peptide batch was determined through UHPLC/MS method A prior to chemical stability measurement.
For stability assessment, the target concentration was 0.5 mg pure compound/ml. Therefore, solutions from solid samples were prepared in a buffer system at a concentration of 0.5 mg/mL compound. The solid samples were obtained by drying down aliquots of a freshly prepared acetonitrile stock solution using a THERMO SPEEDVAC vacuum centrifuge. The dry down time was 3 hours.
The following buffer systems were applied: • Solubility buffer system A): 50 mM HCl pH 1.2+Acetonitrile (3:1). • Solubility buffer system B): 50 mM phosphate buffer pH 6.5+Acetonitrile (3:1). • Solubility buffer system C): 50 mM phosphate buffer pH 7.4+Acetonitrile (3:1). • Prepared solutions were stored for 24 hours at 2° C. and 37° C.
After this time course, the samples were centrifuged for 15 min at 2500 RCF to create a 1:5 dilution of the supernatant. Then 2 μl of the dilution were analyzed with UHPLC-UV applying method A.
The chemical stability was rated through the relative loss of purity calculated by the equation: […]

[6] = Buffer pH 1.1 (head; method: 50 mM HCl pH 1.2), 2 h agitation, read-out: Solubility, Buffer pH 1.1
[7] = aqueous buffer, 50 mM phosphate buffer pH 6.5, 2 h agitation, read-out: Solubility, Buffer pH 6.5
[8] = aqueous buffer, 50 mM phosphate buffer pH 7.4, 2 h agitation, read-out: Solubility, Buffer pH 7.4
[9] = 50 mM phosphate buffer pH 6.5 + acetonitrile (3:1), read-out: Chemical stability (relative purity loss), Buffer pH 6.5
[10] = 50 mM phosphate buffer pH 7.4 + acetonitrile (3:1), read-out: Chemical stability (relative purity loss), Buffer pH 7.4
[11] = 50 mm hcl + acetonitrile, Buffer pH 1.1 (head; method: 50 mM HCl pH 1.2 + acetonitrile 3:1), read-out: Chemical stability (relative purity loss), Buffer pH 1.1

SMILES | remaining at 1 h, 1 µM [1] [%] | remaining at 2 h, 1 µM [1] [%] | remaining at 4 h, 1 µM [1] [%] | IC50 [2] [nM] | solubility at 2 h [3, 6] [µg/mL] | solubility at 2 h [3, 7] [µg/mL] | solubility at 2 h [3, 8] [µg/mL] | remaining at 1 h, 1 µM [4] [%] | degraded at 24 h [5, 9] [%] | degraded at 24 h [5, 10] [%] | degraded at 24 h [5, 11] [%]
Cc1cccc2c(C[C@@H]3NC(=O)CCCCCCCCCCNC(=O)CC[C@@H](C(=O)N[C@@H](CC(N)=O)C(=O)N[C@@H](Cc4cccnc4)C(=O)N(C)CC(N)=O)NC(=O)C(C)(C)NC(=O)[C@H](Cc4ccc5ccccc5c4)NC(=O)[C@H](Cc4ccc(OCCN(C)C)cc4)NC(=O)C(C)(C)NC(=O)[C@H](CCC(N)=O)NC3=O)c[nH]c12 [compound 35] ([Aun][Trp(7-Me)]Q[Aib]Y(Me2NCH2CH2)[2Nal][Aib]EN[3Pal][Sar]-NH2; lactam N-8) | 89 | 88 | 87 | 0.6 | ≥ 870 | 80 (≈ 50.8 µM) | 40 (≈ 25.4 µM) | 86 | 0 | 0 | 7.4
CN(C)CCOc1ccc(C[C@@H]2NC(=O)C3(CCOCC3)NC(=O)[C@H](CCC(N)=O)NC(=O)[C@H](Cc3c[nH]c4ccccc34)NC(=O)CCCCN(C)CCCCN(C)CCCC[C@@H](C(=O)N[C@@H](CO)C(=O)N[C@@H](Cc3cccnc3)C(=O)N(C)CC(N)=O)NC(=O)C3(CCOCC3)NC(=O)[C@H](Cc3ccc4ccccc4c3)NC2=O)cc1 [compound 43] (WQ[Thp]Y(Me2NCH2CH2)[2Nal][Thp][Lys(Me,(CH2)4NMe(CH2)4CO)]S[3Pal][Sar]-NH2; lactam N-7) | 96 | 84 | 75 | 2.02 | ≥ 970 | ≥ 1050 | ≥ 1220 | 71 | 0 | 0.7 | 5.2
Cc1cccc2c(C[C@@H]3NC(=O)CCCCCCCCCCNC(=O)CC[C@@H](C(=O)N[C@@H](CC(N)=O)C(=O)N[C@@H](Cc4cccnc4)C(=O)N(C)CC(N)=O)NC(=O)[C@](C)(CCCCN(C)C)NC(=O)[C@H](Cc4ccc5ccccc5c4)NC(=O)[C@H](Cc4ccc(OCCN(C)C)cc4)NC(=O)C4(CCOCC4)NC(=O)[C@H](CCC(N)=O)NC3=O)c[nH]c12 [compound 20] ([Aun][Trp(7-Me)]Q[Thp]Y(Me2NCH2CH2)[2Nal][αMeLys(Me2)]EN[3Pal][Sar]-NH2; lactam N-8) | 96 | 96 | 97 | 0.23 | ≥ 850 | < 10 | < 10 | 91 | 0 | 0.1 | 4.9
Cc1cccc2c(C[C@@H]3NC(=O)CCCCN(C)CCCCN(C)CCCC[C@@H](C(=O)N[C@@H](CC(N)=O)C(=O)N[C@@H](Cc4cccnc4)C(=O)N(C)CC(N)=O)NC(=O)C(C)(C)NC(=O)[C@H](Cc4ccc5ccccc5c4)NC(=O)[C@H](Cc4ccc(OCCN(C)C)cc4)NC(=O)C4(CCOCC4)NC(=O)[C@H](CCC(N)=O)NC3=O)c[nH]c12 [compound 46] ([Trp(7-Me)]Q[Thp]Y(Me2NCH2CH2)[2Nal][Aib][Lys(Me,(CH2)4NMe(CH2)4CO)]N[3Pal][Sar]-NH2; lactam N-7) | 88 | 85 | 85 | 0.72 | ≥ 960 | ≥ 1050 | ≥ 890 | 100 | 0 | 0 | 6
CC(=O)NCCCC[C@@H]1NC(=O)[C@H](Cc2c[nH]c3c(C)cccc23)NC(=O)CCCCN(C)CCCCN(C)CCCC[C@@H](C(=O)N[C@@H](CC(N)=O)C(=O)N[C@@H](Cc2cccnc2)C(=O)N(C)CC(N)=O)NC(=O)C(C)(C)NC(=O)[C@H](Cc2ccc3ccccc3c2)NC(=O)[C@H](Cc2ccc(OCCN(C)C)cc2)NC(=O)C2(CCOCC2)NC1=O [compound 32] ([Trp(7-Me)]K(Ac)[Thp]Y(Me2NCH2CH2)[2Nal][Aib][Lys(Me,(CH2)4NMe(CH2)4CO)]N[3Pal][Sar]-NH2; lactam N-7) | 96 | 93 | 84 | 0.53 | ≥ 950 | ≥ 1080 | ≥ 1120 | 97 | 0 | 0.5 | 3.6
CC(=O)NCCCC[C@@H]1NC(=O)[C@H](Cc2c[nH]c3c(C)cccc23)NC(=O)CCCCCCCCCCNC(=O)CC[C@@H](C(=O)N[C@@H](CC(N)=O)C(=O)N[C@@H](Cc2cccnc2)C(=O)N(C)CC(N)=O)NC(=O)C2(CCOCC2)NC(=O)[C@H](Cc2ccc3ccccc3c2)NC(=O)[C@H](Cc2ccc(OCCN(C)C)cc2)NC(=O)C2(CCOCC2)NC1=O [compound 50] ([Aun][Trp(7-Me)]K(Ac)[Thp]Y(Me2NCH2CH2)[2Nal][Thp]EN[3Pal][Sar]-NH2; lactam N-8) | 91 | 92 | 91 | 0.19 | ≥ 1180 | 340 (≈ 200 µM) | 130 (≈ 76.4 µM) | 84 | 0 | 0.1 | 3.4
Cc1cccc2c(C[C@@H]3NC(=O)CCCCCCCCC(=O)N(C)CCCC[C@@H](C(=O)NCC(=O)NCCc4cccnc4)NC(=O)C(C)(C)NC(=O)[C@H](Cc4ccc5ccccc5c4)NC(=O)[C@H](Cc4ccc(OCCN(C)C)cc4)NC(=O)C4(CCOCC4)NC(=O)[C@H](CC(C)C)NC3=O)c[nH]c12 [compound 17] ([Trp(7-Me)]L[Thp]Y(Me2NCH2CH2)[2Nal][Aib][Lys(Me)]G-{NH(2-(3-pyridyl)ethyl)}; linker N-7 via Sebacoyl) | 95 | 96 | 95 | 14.3 | ≥ 1410 | < 10 | < 10 | 13 | 0 | 0 | 0
CN(C)CCOc1ccc(C[C@@H]2NC(=O)C3(CCOCC3)NC(=O)[C@H](CCC(N)=O)NC(=O)[C@H](Cc3c[nH]c4ccccc34)NC(=O)CCCCN(C)CCCCN(C)CCCC[C@@H](C(=O)N[C@@H](CO)C(=O)N[C@@H](Cc3cccnc3)C(=O)N(C)CC(N)=O)NC(=O)C(C)(C)NC(=O)[C@H](Cc3ccc4ccccc4c3)NC2=O)cc1 [compound 41] (WQ[Thp]Y(Me2NCH2CH2)[2Nal][Aib][Lys(Me,(CH2)4NMe(CH2)4CO)]S[3Pal][Sar]-NH2; lactam N-7) | 93 | 93 | 81 | 4 | ≥ 1020 | ≥ 960 | ≥ 1020 | 95 | 0 | 0.4 | 5.8
